Results on six molecules are retold here after patent US5446152A, “Heterocyclic compounds active in gastro-intestinal pathologies” (priority 1993, dated 1995).

The structures appear in SMILES notation. Where two headings read alike, the source gives them in different places.

For one data set, the system named is rabbit jejunum. As to the kind of experiment: Spontaneous peristaltic activity on rabbit jejunum. As to conditions: for Emax / EC50 / EC (maximum effect): Oryctolagus cuniculus, isolated rabbit jejunum; for Emax: spontaneous peristaltic contractions, read-out: maximum effect % (max. increase of extent of the contractions); for EC50: read-out: CE50 (concentration able to produce 50% of the maximum effect); for EC (maximum effect): read-out: concentration required to obtain the maximum effect; for effect on the spontaneous peristalsis in comparison with cisapride: rabbit jejunum, examples 1 and 2 at greater concentrations than the reference, example 6 at identical concentrations. The method, then: (§1) In vitro tests were carried out to evaluate the effect of the compounds of formula I and some of their pharmacologically acceptable salts on physiological peristalsis, on the action of the histamine, serotonine and acetylcholine.
The action on physiological peristalsis was evaluated on an isolated rabbit jejunum preparation, according to the method reported by Magnus J. in Pfluegers Arch. Gen. Physiol.
The rabbit jejunum was used to evaluate the extent of the spontaneous peristaltic contractions in the presence and in the absence of the derivatives being studied.

The subject of data set [1] is histamine on guinea-pig ileum. Kind of data set: Influence on the activity of histamine on guinea-pig ileum. The note with it: isolated guinea-pig ileum. The method, then: In vitro tests were carried out to evaluate the effect of the compounds of formula I and some of their pharmacologically acceptable salts on physiological peristalsis, on the action of the histamine, serotonine and acetylcholine. The effect on the histamine was evaluated on a preparation of guinea-pig ileum according to the method described by the above-mentioned authors. […] The rabbit jejunum was used to evaluate the extent of the spontaneous peristaltic contractions in the presence and in the absence of the derivatives being studied. On the guinea-pig ileum the cumulative dose-response curve to histamine were recorded in the presence of increasing concentrations of the products being examined.

Data set [2] has as its system acetylcholine on the rat ascending colon. Kind of data set: Influence on the acetylcholine activity on the rat ascending colon. The note with it: isolated rat ascending colon. Further details: species or system Wistar rat. The method, then:
as §1
Finally the effect on the acetylcholine was evaluated on the ascending colon of a rat, according to the method of Gaddum J. H. and Horton E. W. reported in Br. J. Pharmacol. Chemother. 14, 117, 1959.
The effect of the products on the contracturing action of the acetylcholine was studied on the isolated ascending colon of rat, taken from Wistar rat sacrificed after 24 hours fasting, washed with De Jalon fluid at 27° C. and perfused with the same oxygenated fluid (95% oxygen and 5% carbon dioxide) at the temperature of 27° C. In this case too the cumulative dose-response curves were recorded in the presence of increasing concentrations of the products being studied.

The subject of data set [3] is serotonine on the fornix of the rat stomach. As to the kind of experiment: Influence on the serotonine activity on the fornix of the rat stomach. On the set-up: species or system Wistar rat. How it is done:
as §1
The effect on the serotonine was evaluated on the fornix of the stomach of a rat according to the method of Vane J. R. in Br. J. Pharmacol. Cheroother. 12, 344, 1957.
The action on the serotonine was evaluated on the fornix of the stomach of rat, also taken from Wistar rat sacrificed after 24 hours fasting, following the technique reported by Vane J. R. in Br. J. Pharmacol. Chemoter. 12, 344, 1957, as previously described.

The next data set relates to intestinal transit. As to the kind of experiment: Intestinal transit of an opaque meal in the mouse (prokinetic action). The note with it: for ED50: read-out: DE50 (the source's name). The class given is in vivo, Swiss albino mice. How it is done:
(§2) In tables 5, 6, 7 and 8 the significance was determined by means of Student's test on absolute values with respect to the relative controls using 10 animals per group in tests 5, 6 and 7.
The prokinetic action was evaluated in vivo on Swiss albino mice determining the influence of the products on the intestinal transit of an opaque meal, according to the method described by Macht D. I. and Barba-Gose J. in J. Amer. Pharm. Ass. 20, 558, 1931 and later by Witkin L. B. et al. in J. Pharmacol. Exp. Ther. […]
The method involved the administration of an opaque meal to the mice after a 24 hour fast, through gastric probe, 15 minutes after the administration of the product.
After sacrificing the animals 20 minutes after the administration of the opaque meal, the percentage of the length of the intestine travelled by the opaque meal was calculated.

In a further data set the test system is gastric dumping. As to the kind of experiment: Test of gastric dumping in the rat. The data set is classed as in vivo. The note with it: for Increase % of the gastric dumping with respect to the controls: 30' before, measured 20' after the coloured meal, * = p<0.05. How it is done:
as §2
Within the gastro-duodenal tract, the prokinetic activity was evaluated by means of the test of gastric dumping in the rat, according to the method reported by Scarpignato C. in J. Pharmacol. 14, 261, 1983.

The subject of data set [4] is emesis induced with cisplatin. Kind of data set: Test of vomit from cisplatin in the pigeon (antiemetic activity). The class given is in vivo. The note with it: one hour before cisplatin 7.5 mg/kg; for Acts of vomit (average/anim.) / Animals that vomit % / Latency of 1st act of vomit: * = p<0.05. The method, then: as §2
Finally the antiemetic activity was evaluated in the pigeon after induction of emesis with cisplatin, according to the method of Preziosi P. et al. in Eur. J. Pharmacol. 221, 343, 1992.

Data set [5] is described as follows: Study of acute toxicity (LD50). The class given is in vivo. As to conditions: rat, in vivo, iv; Sprague-Dawley rats of both sexes, observation period of 14 days. The method, then:
(§3) The acute toxicity (LD50)of the derivatives described in this invention was evaluated according to the method reported by Lietchfield J. T. and Wilcoxon F. in J. Pharmacol. Exp. Ther. 96, 99, 1949, on Sprague-Dawley rats of both sexes, over an observation period of 14 days from the day of treatment.

The test system of another data set is Sprague-Dawley rats. As to the kind of experiment: Study of acute toxicity (LD50). The class given is in vivo. The note with it: Sprague-Dawley rats of both sexes, i.v., observation period of 14 days; 20160 min. How it is done: as §3
In data set [6] the test system is dopaminergic receptors D2. As to conditions: cited from earlier work.
Data set [7] relates to gastro-intestinal motility. As to conditions: cited from earlier work.
Setting [8] is: po, mouse, 15' before the opaque meal.

As for `CCN(CC)CCN1CNc2ccc(Cl)cc2C1=O.O=C(O)C(=O)O` [Example 1, 6-Chloro-3-[2-(diethylamino)ethyl]-2,3-dihydro-4(1H)-quinazolinone oxalate], in the data set with rabbit jejunum, the Emax is 75%, the EC50 was determined as 3000 nM, the EC (maximum effect) is 10 µM and the “effect on the spontaneous peristalsis in comparison with cisapride” value is listed as “greater than that of cisapride”. Also, the “active concentration (histamine)” value in [1] came to 100 µM. For the same molecule, in [2], the “active concentration (acetylcholine)” value stood at 100 µM. The “active concentration (serotonine)” value in [3] was 10 µM. Moreover, the “effect on the serotonine activity” value in data set [3] (oxalate) is reported as “increase the effect of the serotonine”. The “% of intestine (from pylorus to anus) travelled by the opaque meal” value with intestinal transit (9.8 μg/Kg p.o., 15' before the opaque meal) worked out at 52.0%. Moreover, the change in vivo at 0.0098 mg/kg with intestinal transit (Mus musculus, po, 9.8 μg/Kg p.o., 15' before the opaque meal, * = p<0.05, read-out: variation in % with respect to the controls) was determined as 34.4%. In the data set on intestinal transit (mouse, dose five times greater than ED50, * = p<0.05), the “Variation % with respect to the controls” value was 33.7%. Also, the ED50 with intestinal transit (setting [8]) was determined as 0.0098 mg/kg. In the data set with gastric dumping (12.5 μg/kg), the “Increase % of the gastric dumping with respect to the controls” value (shortened to “Increase % of the gastric dumping”) turned out to be 27.6%. Also, the “Increase % of the gastric dumping” value with gastric dumping (50.0 μg/kg) is 81.0%. Also, in the data set on gastric dumping (100.0 μg/kg), the “Increase % of the gastric dumping” value was 40.0%. Besides, the “Increase % of the gastric dumping” value with gastric dumping (200.0 μg/kg) was determined as 45.7%. The “Increase % of the gastric dumping” value in the data set with gastric dumping (400.0 μg/kg) was determined as 34.0%. For the same molecule, the “level of activity on the gastric dumping” value with gastric dumping (rat, text statement on table 7) was “high level of activity on the gastric dumping”. In addition, in data set [4] (50.0 μg/kg i.m.), the “Variation % of the time of latency with respect to the controls” value is reported as -8.3%, the “Acts of vomit (average/anim.)” value was 5.0 average/anim, the “Animals that vomit %” value is 100.0% and the “Latency of 1st act of vomit” value turned out to be 77.5 min. For the same molecule, in data set [4] (100.0 μg/kg i.m.), the “Variation % of the time of latency with respect to the controls” value was “+14.7%”, the “Acts of vomit (average/anim.)” value was found to be 4.0 average/anim, the “Animals that vomit %” value turned out to be 100.0% and the “Latency of 1st act of vomit” value turned out to be 97.0 min. The LD50 at 336 h in data set [5] was 100 mg/kg.

As for `CCN(CC)CCN1CN(C)c2ccc(Cl)cc2C1=O` [Example 2, 6-Chloro-3-[2-(diethylamino)ethyl]-2,3-dihydro-1-methyl-4(1H)-quinazolinoneoxalate], in the data set with rabbit jejunum, the Emax turned out to be 73%, the EC50 is 300 nM, the EC (maximum effect) stood at 10 µM and the “effect on the spontaneous peristalsis in comparison with cisapride” value was “greater than that of cisapride”. Besides, in data set [1], the “active concentration (histamine)” value worked out at 100 µM. The “active concentration (acetylcholine)” value in [2] was 100 µM. Also, in data set [3], the “active concentration (serotonine)” value amounted to 10 µM and the “effect on the serotonine activity” value is “increase the effect of the serotonine”. Further, the “% of intestine (from pylorus to anus) travelled by the opaque meal” value with intestinal transit (26.5 μg/Kg p.o., 15' before the opaque meal) is given as 38.9%. Moreover, the change in vivo at 0.0265 mg/kg with intestinal transit (Mus musculus, po, 26.5 μg/Kg p.o., 15' before the opaque meal, * = p<0.05, read-out: variation in % with respect to the controls) came out at 0.5%. For the same molecule, the ED50 with intestinal transit (setting [8]) stood at 0.0265 mg/kg. Further, the LD50 at 336 h in data set [5] was in the range of 75 to 80 mg/kg.

Regarding `CCN(CC)CCN1CN(C)c2ccc(Cl)cc2C1=O` [Example 11, 6-Chloro-3-[2-(diethylamino)ethyl]-2,3-dihydro-1-methyl-4(1H)-quinazolinonecitrate], the LD50 in the data set on Sprague-Dawley rats is reported as 80 mg/Kg/i.v.

Turning to `COc1cc(N)c(Cl)cc1C(=O)NC1CCN(Cc2ccccc2)CC1` [clebopride], the “activity on the dopaminergic receptors D2” value in data set [6] was “a fair amount of activity on the dopaminergic receptors D2”. Besides, the “gastro-intestinal motility / prokinetic activity” value in data set [7] is “having prokinetic activity”.

On to `CCN1CC(NC(=O)c2cc(Cl)c(N)cc2OC)CN1CC` [dazopride], for which, in data set [6], the “activity on the dopaminergic receptors D2” value is reported as “a fair amount of activity on the dopaminergic receptors D2”. For the same molecule, the “gastro-intestinal motility / prokinetic activity” value in data set [7] is on record as “having prokinetic activity”.

As to `CCN(CC)CCNC(=O)c1cc(Cl)c(N)cc1OC` [metoclopramide], the “activity on the dopaminergic receptors D2” value in [6] is “both central and peripheral antagonistic activity on the dopaminergic receptors D2”. Further, the “gastro-intestinal motility / prokinetic activity” value in data set [7] was “stimulates the motility of the upper gastro-intestinal tract”.
